The values that follow are results of earlier work, collected in patent US6620432B2, “Phenytoin sodium pharmaceutical compositions” (Mylan Pharmaceuticals Inc., priority 1999, dated 2003).

Structures can show the parent of a compound that is named as a salt.

The conditions of the series: general statement, no test described.

For the molecule `O=C1NC(=O)C(c2ccccc2)(c2ccccc2)N1` [phenytoin], the Solubility in water result is “water insoluble”.
Turning to `O=C1NC(=O)C(c2ccccc2)(c2ccccc2)N1` [Phenytoin sodium, monosodium salt of 5,5-diphenyl hydantoinate], the Solubility in water entry was “highly water soluble”.
